From patent US4021431A, “3-(Piperidino-lower-alkyl)-indoles” (Sterling Drug Inc., priority 1975, dated 1977)
Structures can show the parent of a compound that is named as a salt.

Test system: adjuvant-induced arthritis
Test: inhibition of adjuvant-induced arthritis test (AA)
Conditions: Rattus norvegicus, po, read-out: AA (% Inhib.)
Method: The inhibition of adjuvant-induced arthritis test used in the evaluation of the instant compounds is described briefly as follows: Adult male Sprague-Dawley strain rats weighing 200-230 grams were used; 0.1 ml. of a 0.6% suspension of adjuvant (M. Butyricum, Difco Laboratories, Detroit, Michigan) in heavy mineral oil was injected into the plantar tissue of the left hind paw. A negative control group was injected with mineral oil only. Symptoms of polyarthritis began to appear approximately ten days after adjuvant administration, and beginning on the ninth day after adjuvant injection, the animals were given, by gavage, twelve daily medications of the test compounds suspended in 1% gum tragacanth in a volume of 1 ml./100 g. of body weight. Both the negative control and adjuvant injected control animals received the vehicle only. Food and water are permitted ad libitum. Twenty-four hours after the last medication, the animals were weighed, the degree of arthritic involvement (that is the increase in foot edema measured plethysmographically as described above), and plasma inflammation units were determined. The results were expressed as percent inhibition calculated from the average differences in total foot volume of both hind paws between the adjuvant injected control and medicated rats, correcting for difference in foot volume of the oil injected negative control group.
Following foot volume measurements, the animals were anesthetized with ether and bled by heart puncture into rubber stoppered, evacuated glass tubes (calibrated to draw 2.7 ml.) containing 0.3 ml. of 0.1M sodium oxalate solution for determination of plasma inflammation units (P.I.U.). The unclotted blood was centrifuged, and 0.1 ml. of the plasma was diluted with 5.0 of 0.9% sodium chloride solution. The P.I.U.'s are direct spectrophotometer optical density readings expressed as the difference between preheated and heated plasma, corrected for 1:50 dilution. The results were expressed as percent inhibition calculated from the difference between the average plasma uncorrected for average plasma inflammation units of oil-injected negative control rats.
All data were obtained on oral administration.

SMILES	inhibition in vivo at 0.08 µM, 0.08 µmol/kg [%]	inhibition in vivo at 0.1 µM, 0.1 µmol/kg [%]	inhibition in vivo at 0.18 µM, 0.18 µmol/kg [%]	inhibition in vivo at 0.02 µM, 0.02 µmol/kg [%]	inhibition in vivo at 0.324 µM, 0.324 µmol/kg [%]	inhibition in vivo at 0.162 µM, 0.162 µmol/kg [%]	inhibition in vivo at 0.01 µM, 0.01 µmol/kg [%]	inhibition in vivo at 0.04 µM, 0.04 µmol/kg [%]	inhibition in vivo at 0.16 µM, 0.16 µmol/kg [%]	inhibition in vivo at 0.005 µM, 0.005 µmol/kg [%]
COc1ccc2c(c1)c(CCN(Cc1ccccc1)C(C)(C)C)c(C)n2C(=O)c1ccccc1 [72 (N-Benzyl), 1-benzoyl-3-[2-(N-benzyl-N-t-butylamino)ethyl]-5-methoxy-2-methylindole hydrochloride]	62									
COc1ccc2c(c1)c(CCN1CCCCC1CC1CCCCC1)c(C)n2C(=O)c1ccccc1 (centres unmarked) [Example 1, 1-Benzoyl-3-[2-(2-cyclohexylmethylpiperidino)ethyl]-5-methoxy-2-methylindole]		79								
COc1ccc2c(c1)c(CCN1CCCCC1CC1CCCCC1)c(C)n2C(=O)c1ccc(C)cc1 (centres unmarked) [Example 2]	37									
COc1ccc(C(=O)n2c(C)c(CCN3CCCCC3CC3CCCCC3)c3cc(OC)ccc32)cc1 (centres unmarked) [Example 3]			64							
COc1ccc2c(c1)c(CCN1CCCCC1CC1CCCCC1)c(C)n2C(=O)c1ccc(Cl)cc1Cl (centres unmarked) [Example 4]				28	80					
COc1ccc2c(c1)c(CCN1CCCCC1CC1CCCCC1)c(C)n2C(=O)c1ccc(Cl)c(Cl)c1 (centres unmarked) [Example 5]	0									
COc1ccc2c(c1)c(CCN1CCCCC1CC1CCCCC1)c(C)n2C(=O)c1ccc(F)cc1 (centres unmarked) [Example 6]	84			66						
COc1ccc2c(c1)c(CCN1CCCCC1CC1CCCCC1)c(C)n2C(=O)c1ccccc1Br (centres unmarked) [Example 7]	29									
COc1ccc2c(c1)c(CCN1CCCCC1CC1CCCCC1)c(C)n2C(=O)C=Cc1ccccc1 (centres unmarked) [Example 8]	30									
COc1ccc2c(c1)c(CCN1CCCCC1CC1CCCCC1)c(C)n2C(=O)c1ccccc1F (centres unmarked) [Example 9]						72				
COc1ccc2c(c1)c(CCN1CCCCC1CC1CCCCC1)c(C)n2C(=O)c1cccs1 (centres unmarked) [Example 10]					63					
COc1ccc2c(c1)c(CCN1CCCCC1CC1CCCCC1)c(C)n2C(=O)c1ccco1 (centres unmarked) [Example 11]					50					
COc1ccc2c(c1)c(CCN1CCCCC1CC1CCCCC1)c(C)n2C(=O)c1cccc(F)c1 (centres unmarked) [Example 12]	17									
Cc1c(CCN2CCCCC2CC2CCCCC2)c2ccccc2n1C(=O)c1ccccc1 (centres unmarked) [Example 48]	33									
Cc1c(CCN2CCCCC2CC2CCCCC2)c2cc(F)cc(F)c2n1C(=O)c1ccccc1 (centres unmarked) [Example 50]						87				
Cc1c(CCN2CCCCC2CC2CCCCC2)c2cc(F)ccc2n1C(=O)c1ccccc1 (centres unmarked) [Example 58]	51									
COc1ccc2c(c1)c(CCN1CCCCC1C1CCCCC1)c(C)n2C(=O)c1ccccc1 (centres unmarked) [Example 62, 1-benzoyl-3-[2-(2-cyclohexylpiperidino)ethyl]-5-methoxy-2-methylindole hydrochloride]					107					
COc1ccc2c(c1)c(CCN1CCCCC1C1CCCCC1)c(C)n2C(=O)c1ccc(F)cc1 (centres unmarked) [Example 63, 1-(4-fluorobenzoyl)-3-[2-(2-cyclohexylpiperidino)ethyl]-5-methoxy-2-methylindole hydrochloride]	84									
COc1ccc2c(c1)c(CCN1CCCCC1CCC1CCCCC1)c(C)n2C(=O)c1ccccc1 (centres unmarked) [Example 64, 1-benzoyl-3-{2-[2-(2-cyclohexylethyl)piperidino]ethyl}-5-methoxy-2-methylindole]							36	70	100	
COc1ccc2c(c1)c(CCN1CCCCC1CCC1CCCCC1)c(C)n2C(=O)c1ccc(F)cc1 (centres unmarked) [Example 65, 1-(4-fluorobenzoyl)-3-{2-[2-(2-cyclohexylethyl)piperidino]ethyl}-5-methoxy-2-methylindole hydrochloride]	85									
COc1ccc2c(c1)c(CCN1CCCCC1CC1CCCCC1)cn2C(=O)c1ccccc1 (centres unmarked) [Example 67]	25									
COc1ccc2c(c1)c(CCN(C(C)C)C(C)C)c(C)n2C(=O)c1ccccc1 [Example 73, 1-benzoyl-3-[2-(diisopropylamino)ethyl]-5-methoxy-2-methylindole hydrochloride]	53			0						0
COc1ccc2c(c1)c(CCN1CCCCC1CC1CCCCC1)c(C)n2C(=O)c1ccc(Cl)cc1 (centres unmarked) [Example 84, 1-(4-chlorobenzoyl)-3-[2-(2-cyclohexylmethylpiperidino)ethyl]-5-methoxy-2-methylindole]							36	70	100	
COc1ccc2c(c1)c(CCN(Cc1ccccc1)C(C)(C)C)c(C)n2C(=O)c1ccc(F)cc1 [Example 85, 1-(4-fluorobenzoyl)-3-[2-(N-benzyl-N-t-butylamino)ethyl]-5-methoxy-2-methylindole hydrochloride]	104			11						0
COc1ccc2c(c1)c(CCNC(C)(C)C)c(C)n2C(=O)c1ccc(F)cc1.Cl [Example 86, 1-(4-fluorobenzoyl)-3-[2-(N-t-butylamino)ethyl]-5-methoxy-2-methylindole hydrochloride]				71						13
COc1ccc2c(c1)c(CCN(C(C)C)C(C)C)c(C)n2C(=O)c1ccc(F)cc1 [Example 87, 1-(4-fluorobenzoyl)-3-[2-(diisopropylamino)ethyl]-5-methoxy-2-methylindolehydrochloride]	98			73						43
COc1ccc2c(c1)c(CCN1CCC(CCC3CCCCC3)CC1)c(C)n2C(=O)c1ccc(F)cc1 [Example 88, 1-(4-fluorobenzoyl)-3-{2-[4-(2-cyclohexylethyl)piperidino]ethyl}-5-methoxy-2-methylindole hydrochloride]	75									
COc1ccc2c(c1)c(CCN1CCC(CCC3CCCCC3)CC1)c(C)n2C(=O)c1ccccc1 [Example 89, 1-benzoyl-3-{2-[4-(2-cyclohexylethyl)piperidino]ethyl}-5-methoxy-2-methylindole hydrochloride]	89									
COc1ccc2c(c1)c(CCN1CCC(C3CCCCC3)CC1)c(C)n2C(=O)c1ccc(F)cc1 [Example 90, 1-(4-fluorobenzoyl)-3-[2-(4-cyclohexylpiperidino)ethyl]-5-methoxy-2-methylindole hydrochloride]	77									

Same assay, conditions: oral, twelve daily medications, 0.08 μM/kg.

SMILES	AA: toxicity noted in place of % inhibition
COc1ccc2c(c1)c(CCNC(C)(C)C)c(C)n2C(=O)c1ccc(F)cc1.Cl [Example 86, 1-(4-fluorobenzoyl)-3-[2-(N-t-butylamino)ethyl]-5-methoxy-2-methylindole hydrochloride]	Toxic

Same assay, conditions: oral, twelve daily medications, 0.16 μM/kg.

SMILES	AA: toxicity noted in place of % inhibition
COc1ccc2c(c1)c(CCNC(C)(C)C)c(C)n2C(=O)c1ccccc1.Cl [72 (N-H), 1-benzoyl-3-[2-(N-t-butylamino)ethyl]-5-methoxy-2-methylindole hydrochloride]	Toxic
